From patent US6100272A, “Tetracyclic spiro compounds as 5HT1B receptor antagonists” (SmithKline Beecham p.l.c., priority 1996, dated 2000)

These molecules were tested against T1, 5-HT 1B receptors (Homo sapiens, UniProt P28222) (assay: 5-HT 1B and 5-HT 1D receptor binding ([3H]-5-HT displacement, CHO cell homogenates)). Conditions: CHO cells expressing receptor; [3H]-5-HT 4 nM; Tris Mg HCl buffer pH 7.7; 37° C., 45 minutes; pKi calculated from IC50.
T1 construct: expressed in transfected cells; host or cells: CHO cells (homogenised in Tris buffer)
T1 sequence (P28222 whole entry): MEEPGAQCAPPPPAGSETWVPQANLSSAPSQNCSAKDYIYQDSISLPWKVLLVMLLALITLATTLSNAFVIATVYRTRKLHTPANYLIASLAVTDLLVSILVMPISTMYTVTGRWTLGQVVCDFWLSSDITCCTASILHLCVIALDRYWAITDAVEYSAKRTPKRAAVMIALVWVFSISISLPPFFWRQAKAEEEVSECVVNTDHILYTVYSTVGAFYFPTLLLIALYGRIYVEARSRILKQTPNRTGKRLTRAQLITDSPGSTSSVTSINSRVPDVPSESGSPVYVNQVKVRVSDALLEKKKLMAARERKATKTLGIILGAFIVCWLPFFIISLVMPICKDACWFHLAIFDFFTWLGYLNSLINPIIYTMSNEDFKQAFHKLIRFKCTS
Method: CHO cells expressing 5-HT 1D receptors (0.563×10^8 cells/ml) were homogenised in Tris buffer and stored in 1 ml aliquots. CHO cells expressing 5-HT 1B receptors (4×10^7 cells/ml) were homogenised in Tris buffer and stored in 1.5 ml aliquots. 0.4 ml of a cell suspension was incubated with [^3 H-5-HT (4 nM) in Tris Mg HCl buffer (pH 7.7) and test drug, at 37° C. for 45 minutes. Each test drug was tested at 10 concentrations (0.01 mM to 0.3 nM final concentration), with non-specific binding defined using 0.01 mM 5-HT. The total assay volume was 0.5 ml. Incubation was stopped by rapid filtration using a Packard Filtermate (filters pre-soaked in 0.3% polyethylenimine) and radioactivity measured by Topcount scintillation counting. pKi values were calculated from the IC50 generated by an iterative least squares curve fitting programme.

| SMILES | pKi values at 5-HT 1D beta receptors |
| --- | --- |
| Cc1cc(N2CCCC2=O)ccc1-c1ccc(C(=O)N2CCc3cc4c(cc32)C2(CO4)C[C@@H](C)N(C)[C@@H](C)C2)cc1 (stereo partly drawn) [Example 28, cis-2',6'-dimethyl isomer of 5-[2'-Methyl-4'-(2-oxopyrrolidin-1-yl)biphenyl-4-carbonyl]-2,3,6,7-tetrahydro-1',2',6'-trimethylspiro[furo[2,3-f]indole-3,4'-piperidine]] | > 8.0 |

Same assay, conditions: CHO cells expressing receptor; [3H]-5-HT 4 nM; Tris Mg HCl buffer pH 7.7; 37° C., 45 minutes; pKi calculated from IC50; read-out: pKi values at 5-HT 1D beta receptors (converted)

| SMILES | Ki [nM] |
| --- | --- |
| CC(=O)Nc1ccc(-c2ccc(C(=O)N3CCc4cc5c(cc43)C3(CCN(C)CC3)CO5)cc2)c(C)c1 [Example 4, 5-(4'-Acetamido-2'-methylbiphenyl-4-carbonyl)-1'-methyl-2,3,6,7-tetrahydrospiro[furo[2,3-f]indole-3,4'-piperidine]] | < 10 |
| Cc1cc(N2CCN(C)C2=O)ccc1-c1ccc(C(=O)N2CCc3cc4c(cc32)C2(CCN(C)CC2)CO4)cc1 [Example 8] | < 10 |
| Cc1cc(N2CCCC2=O)ccc1-c1ccc(C(=O)C2=C3CC4=C(C=C3N=C2)OCC42CCN(C)CC2)cc1 [Example 33, 2,3-Dihydro-1'-methyl-5-[2'-methyl-4'-(2-oxopyrrolidin-1-yl)biphenyl-4-carbonyl]spiro[furo[3,2-f]indole3,4'-piperidine]] | < 10 |
| CN1CCC2(CC1)COc1cc3c(cc12)N(C(=O)c1ccc(-c2ccc(N4CCCC4=O)cc2Cl)cc1)CC3 [Example 14] | < 10 |
| Cc1cc(N2CCC(C)C2=O)ccc1-c1ccc(C(=O)N2CCc3cc4c(cc32)C2(CCN(C)CC2)CO4)cc1 (stereo not drawn) [Example 9] | < 10 |
| Cc1cc(N2CCNC2=O)ccc1-c1ccc(C(=O)N2CCc3cc4c(cc32)C2(CCN(C)CC2)CO4)cc1 [Example 7] | < 10 |
| C=CCN1CCC2(CC1)COc1cc3c(cc12)N(C(=O)c1ccc(-c2ccc(N4CCCC4=O)cc2C)cc1)CC3 [Example 24, 1'-Allyl-5-[2'-methyl-4'-(2-oxopyrrolidin-1-yl)biphenyl-4-carbonyl]-2,3,6,7-tetrahydrospiro[furo[2,3-f]indole-3,4'-piperidine]] | < 10 |
| Cc1cc(N2CCOC2=O)ccc1-c1ccc(C(=O)N2CCc3cc4c(cc32)C2(CCN(C)CC2)CO4)cc1 [Example 3, 5-[4'-(4,5-Dihydro-2-oxooxazol-3-yl)-2'-methylbiphenyl-4-carbonyl]-1'-methyl-2,3,6,7-tetrahydrospiro[furo[2,3-f]indole-3,4'-piperidine]] | < 10 |
